Data: patent US20230331827A1, “POTASSIUM CHANNEL INHIBITORS” (priority 2017, published 2023)

Tested on: trypsin
Experiment: Phage TRF binding assay on immobilised biotinylated trypsin (monoclonal phage ELISA)
Details: presented on phage as direct N-terminus gene-III fusion
Protocol: Phage display technology facilitates isolation of binders to any given target from large combinatorial repertoires based on proteins and peptides that can be presented on the surface of filamentous phage^105. In order to isolate functional knottin-antibody fusions from the KnotBody libraries multiple rounds of phage display selections on trypsin (cognate antigen for the EETI-II donor) were carried out. Phage particles were prepared by rescuing KnotBody libraries using trypsin cleavable helper phage ^102,106Two rounds of phage display selections were performed on 10 µg/ml biotinylated trypsin immobilised on Streptavidin (for Round-1) or Neutravidin (for round-2) coated Maxisorp™ immunotubes (Thermo Scientific, Cat No. 444202). In both rounds of selection, phage libraries were pre-incubated with streptavidin coated paramagnetic beads (Thermo Fisher Scientific, Cat. No. 11205D). […] Polyclonal phage preparations from round-2 selection outputs were analysed for trypsin binding using a time resolved fluorescence (TRF) binding assay. In this assay, polyclonal phage binding to biotinylated trypsin immobilised on neutravidin (Thermo Fisher Scientific, Cat. No 31000) coated Maxisorp™ plates (Thermo Scientific, Cat. No. 437111) was detected using a mouse anti-M13 antibody (GE Healthcare, Cat. No. 27-9420-01) followed by europium conjugated anti-mouse antibody (Perkin Elmer, Cat. No. AD0124). […]

Ecballium elaterium trypsin inhibitor-II [EETI-II, reference compound]
binding to trypsin: no detectable binding to trypsin
